# Columns and labels:
# [1] = biological target: T1, HCV polymerase (NS5B) type 1b (Hepatitis C virus genotype 1b, UniProt P26663); test: Assay of enzyme (HCV polymerase) inhibitory activity, type 1b enzyme; assay type: biochemical, HCV BK strain (type 1b); details: HCV polymerase inhibitory activity IC50, 1b, type 1b enzyme
# T1 construct: a region encoding NS5B (J Virol 1991 March, 65(3), 1105-13, 544 amino acids after deletion of 47 amino acids on the C-terminal); 6xHis (C); made in house; host or cells: Escherichia coli
# Summary of the method: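 IC50 derived from [3H]UTP incorporation into TCA-insoluble RNA, compared with and without test compound. Reaction (25 °C, 60 min, Tris pH 7.5, 5 mM MgCl2): E. coli-expressed 1b NS5B Δ47 with His tag at 0.5 μg/ml, 5 μg/ml run-off substrate RNA, ATP/GTP/CTP 50 μM, UTP 2 μM.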
# [2] = biological target: T2, HCV polymerase (NS5B) type 1a (Hepatitis C virus genotype 1a, UniProt P26664); test: Assay of enzyme (HCV polymerase) inhibitory activity, type 1a enzyme; assay type: biochemical, HCV type 1a (cloned from the blood of patients); details: HCV polymerase inhibitory activity IC50, 1a, type 1a enzyme
# T2 construct: made in house; host or cells: Escherichia coli (by the 'similar method' of the 1b enzyme)
# Summary of the method: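 Reactions ran 60 min at 25° C in 20 mM Tris-HCl pH 7.5, 5 mM MgCl2, 50 mM NaCl, holding genotype 1a NS5B (1.5 μg/ml, Δ47 C-terminus, 6His), substrate RNA 5 μg/ml, UTP 2 μM with tritiated UTP and other NTPs 50 μM. IC50 derived from incorporated radiolabel in filter-trapped RNA relative to uninhibited reaction.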
SMILES,IC50 [1] [nM],IC50 [2] [nM]
"O=C(NCc1ccc(OC(F)(F)F)cc1)[C@H]1CN(c2nc3nc(CC4CC4)ncc3s2)CCN1S(=O)(=O)c1ccc(OC(F)(F)F)cc1 [Example 992, (R)-4-(5-cyclopropylmethyl-thiazolo[4,5-d]pyrimidin-2-yl)-1-(4-trifluoromethoxy-benzenesulfonyl)-piperazine-2-carboxylic acid 4-trifluoromethoxy-benzylamide]",< 100,< 100
"CCN(CC)c1nc2nc(Cl)nc(N3CCN(S(=O)(=O)c4ccc(OC(F)(F)F)cc4)[C@@H](C(=O)NCc4ccc(OC(F)(F)F)cc4)C3)c2s1 [Example 993, (R)-4-(5-chloro-2-diethylamino-thiazolo[4,5-d]pyrimidin-7-yl)-1-(4-trifluoromethoxy-benzenesulfonyl)-piperazine-2-carboxylic acid 4-trifluoromethoxy-benzylamide]",> 1000,> 1000
"CC(C)(O)C#Cc1ncc2sc(N3CCN(S(=O)(=O)c4ccc(OC(F)(F)F)cc4)[C@@H](C(=O)NCc4ccc(OC(F)(F)F)cc4)C3)nc2n1 [Example 994, (R)-4-[5-(3-hydroxy-3-methyl-but-1-ynyl)-thiazolo[4,5-d]pyrimidin-2-yl]-1-(4-trifluoromethoxy-benzenesulfonyl)-piperazine-2-carboxylic acid 4-trifluoromethoxy-benzylamide]",< 100,< 100
"C#Cc1ncc2sc(N3CCN(S(=O)(=O)c4ccc(OC(F)(F)F)cc4)[C@@H](C(=O)NCc4ccc(OC(F)(F)F)cc4)C3)nc2n1 [Example 995, (R)-4-(5-ethynyl-thiazolo[4,5-d]pyrimidin-2-yl)-1-(4-trifluoromethoxy-benzenesulfonyl)-piperazine-2-carboxylic acid 4-trifluoromethoxy-benzylamide]",< 100,< 100
"O=C(NCc1ccc(S(F)(F)(F)(F)F)cc1)[C@H]1CN(c2nc3ncncc3s2)CCN1S(=O)(=O)c1ccc(OC(F)(F)F)cc1 [Example 996, (R)-4-thiazolo[4,5-d]pyrimidin-2-yl-1-(4-trifluoromethoxy-benzenesulfonyl)-piperazine-2-carboxylic acid 4-pentafluorosulfanyl-benzylamide]",< 100,< 100
"O=C(NCc1ccc(OC(F)F)cc1F)[C@H]1CN(c2nc3nc(Cl)ncc3s2)CCN1S(=O)(=O)c1ccc(OC(F)(F)F)cc1 [Example 997, (R)-4-(5-chloro-thiazolo[4,5-d]pyrimidin-2-yl)-1-(4-trifluoromethoxy-benzenesulfonyl)-piperazine-2-carboxylic acid 4-difluoromethoxy-2-fluoro-benzylamide]",< 100,< 100
"O=C(NCc1ccc(OC(F)F)cc1F)[C@H]1CN(c2nc3ncncc3s2)CCN1S(=O)(=O)c1ccc(OC(F)(F)F)cc1 [Example 998, (R)-4-thiazolo[4,5-d]pyrimidin-2-yl-1-(4-trifluoromethoxy-benzenesulfonyl)-piperazine-2-carboxylic acid 4-difluoromethoxy-2-fluoro-benzylamide]",< 100,< 100
"O=C(NCc1ccc(OC(F)(F)F)cc1)[C@H]1CN(c2nc3nc(C(F)(F)F)ncc3s2)CCN1S(=O)(=O)c1ccc(OC(F)F)cc1 [Example 999, (R)-1-(4-difluoromethoxy-benzenesulfonyl)-4-(5-trifluoromethyl-thiazolo[4,5-d]pyrimidin-2-yl)-piperazine-2-carboxylic acid 4-trifluoromethoxy-benzylamide]",< 100,< 100
"O=C(NCc1ccc(OC(F)F)cc1)[C@H]1CN(c2nc3nc(C(F)(F)F)ncc3s2)CCN1S(=O)(=O)c1ccc(OC(F)(F)F)cc1 [Example 1000, (R)-1-(4-trifluoromethoxy-benzenesulfonyl)-4-(5-trifluoromethyl-thiazolo[4,5-d]pyrimidin-2-yl)-piperazine-2-carboxylic acid 4-difluoromethoxy-benzylamide]",< 100,< 100
"O=C(NCc1ccc(OC(F)F)cc1)[C@H]1CN(c2nc3nc(C(F)(F)F)ncc3s2)CCN1S(=O)(=O)c1ccc(C(F)(F)F)cc1 [Example 1001, (R)-1-(4-trifluoromethyl-benzenesulfonyl)-4-(5-trifluoromethyl-thiazolo[4,5-d]pyrimidin-2-yl)-piperazine-2-carboxylic acid 4-difluoromethoxy-benzylamide]",< 100,< 100
"O=C(NCc1ccc(OC(F)(F)F)cc1)[C@H]1CN(c2nc3nnnc(NCCO)c3s2)CCN1S(=O)(=O)c1ccc(OC(F)(F)F)cc1 [Example 1002, (R)-4-[4-(2-hydroxy-ethylamino)-thiazolo[4,5-d][1,2,3]triazin-6-yl]-1-(4-trifluoromethoxy-benzenesulfonyl)-piperazine-2-carboxylic acid 4-trifluoromethoxy-benzylamide]",< 100,< 100
"O=C(NCc1ccc(OC(F)(F)F)cc1)[C@H]1CN(c2nc3nc(C(F)(F)F)[nH]c(=O)c3s2)CCN1S(=O)(=O)c1ccc(OC(F)(F)F)cc1 [Example 1003, (R)-4-(7-oxo-5-trifluoromethyl-6,7-dihydro-thiazolo[4,5-d]pyrimidin-2-yl)-1-(4-trifluoromethoxy-benzenesulfonyl)-piperazine-2-carboxylic acid 4-trifluoromethoxy-benzylamide]",< 100,< 100
"O=C(NCc1ccc(OC(F)(F)F)cc1)[C@H]1CN(c2nc3nc(C(F)(F)F)ncc3s2)CCN1S(=O)(=O)c1ccc(OC(F)(F)C(F)F)cc1 [Example 1004, (R)-1-[4-(1,1,2,2-tetrafluoro-ethoxy)-benzenesulfonyl]-4-(5-trifluoromethyl-thiazolo[4,5-d]pyrimidin-2-yl)-piperazine-2-carboxylic acid 4-trifluoromethoxy-benzylamide]",< 100,< 100
"O=C(NCc1ccc(OC(F)F)cc1)[C@H]1CN(c2nc3nc(C(F)(F)F)ncc3s2)CCN1S(=O)(=O)c1ccc(OC(F)F)cc1 [Example 1005, (R)-1-(4-difluoromethoxy-benzenesulfonyl)-4-(5-trifluoromethyl-thiazolo[4,5-d]pyrimidin-2-yl)-piperazine-2-carboxylic acid 4-difluoromethoxy-benzylamide]",< 100,< 100
"O=C(NCc1ccc(OC(F)(F)F)cc1)[C@H]1CN(c2nc3nnncc3s2)CCN1S(=O)(=O)c1ccc(C(F)(F)F)cc1 [Example 1006, (R)-4-thiazolo[4,5-d][1,2,3]triazin-6-yl-1-(4-trifluoromethyl-benzenesulfonyl)-piperazine-2-carboxylic acid 4-trifluoromethoxy-benzylamide]",< 100,< 100
"CCOC(=O)c1ncc2sc(N3CCN(S(=O)(=O)c4ccc(OC(F)(F)F)cc4)[C@@H](C(=O)NCc4ccc(OC(F)(F)F)cc4)C3)nc2n1 [Example 1007, 2-[(R)-4-(4-trifluoromethoxy-benzenesulfonyl)-3-(4-trifluoromethoxy-benzylcarbamoyl)-piperazin-1-yl]-thiazolo[4,5-d]pyrimidine-5-carboxylic acid ethyl ester]",< 100,< 100
"O=C(NCc1ccc(OC(F)(F)F)cc1)[C@H]1CN(c2nc3nc(CO)ncc3s2)CCN1S(=O)(=O)c1ccc(OC(F)(F)F)cc1 [Example 1008, (R)-4-(5-hydroxymethyl-thiazolo[4,5-d]pyrimidin-2-yl)-1-(4-trifluoromethoxy-benzenesulfonyl)-piperazine-2-carboxylic acid 4-trifluoromethoxy-benzylamide]",< 100,< 100
"COc1nncc2sc(N3CCN(S(=O)(=O)c4ccc(OC(F)(F)F)cc4)[C@@H](C(=O)NCc4ccc(OC(F)(F)F)cc4)C3)nc12 [Example 1009, (R)-4-(4-methoxy-thiazolo[4,5-d]pyridazin-2-yl)-1-(4-trifluoromethoxy-benzenesulfonyl)-piperazine-2-carboxylic acid 4-trifluoromethoxy-benzylamide]",< 100,< 100
"N#Cc1ncc2sc(N3CCN(S(=O)(=O)c4ccc(C(F)(F)F)cc4)[C@@H](C(=O)NCc4ccc(OC(F)(F)F)cc4)C3)nc2n1 [Example 1010, (R)-4-(5-cyano-thiazolo[4,5-d]pyrimidin-2-yl)-1-(4-trifluoromethyl-benzenesulfonyl)-piperazine-2-carboxylic acid 4-trifluoromethoxy-benzylamide]",< 100,< 100
"N#Cc1ncc2sc(N3CCN(S(=O)(=O)c4ccc(C(F)(F)F)cc4)[C@@H](C(=O)NCc4ccc(OC(F)F)cc4)C3)nc2n1 [Example 1011, (R)-4-(5-cyano-thiazolo[4,5-d]pyrimidin-2-yl)-1-(4-trifluoromethyl-benzenesulfonyl)-piperazine-2-carboxylic acid 4-difluoromethoxy-benzylamide]",< 100,< 100
"O=C(NCc1ccc(OC(F)(F)F)cc1)[C@H]1CN(c2nc3nc(CC4CC4)ncc3s2)CCN1S(=O)(=O)c1ccc(C(F)(F)F)cc1 [Example 1012, (R)-4-(5-cyclopropylmethyl-thiazolo[4,5-d]pyrimidin-2-yl)-1-(4-trifluoromethyl-benzenesulfonyl)-piperazine-2-carboxylic acid 4-trifluoromethoxy-benzylamide]",< 100,< 100

# — patent US8017612B2, “Piperazine compound and use thereof as a HCV polymerase inhibitor” (priority 2006, dated 2011)
